Source: US20210387996A1, “TRICYCLIC COMPOUNDS FOR THE TREATMENT AND PROPHYLAXIS OF HEPATITIS B VIRUS DISEASE” (priority 2018, published 2021)

How the values were obtained:
[1] = test system: HBV (extracellular HBsAg) in PHH; experiment: Cryopreserved primary human hepatocytes (PHH) HBV infection assay, extracellular HBsAg (CLIA); type: cell-based; details: Hepatitis B virus, Hepatocyte, 216 h, read-out: HBsAg IC50
Procedure: This assay is used to confirm the anti-HBV effect of the compounds in HBV PHH infection assay. Cryopreserved PHH (BioreclamationIVT, Lot YJM) was thawed at 37° C. and gently transferred into pre-warmed InVitroGRO HT medium (BioreclamationIVT, Cat. S03317). The mixture was centrifuged at 70 relative centrifugal force (RCF) for 3 mins at RT, and the supernatant was discarded. Pre-warmed InVitroGRO CP medium (BioreclamationIVT, Cat #S03316) was added to the cell pellet to gently re-suspend cells. The cells were seeded at the density of 5.8×10^4 cells per well to collagen I coated 96-well plate (Gibco, Cat. A1142803) with the InVitroGRO CP medium. All plates were incubated at 37° C. with 5% CO2 and 85% humidity.
At 20 hours after plating, the medium was changed to PHH culture medium (Dulbecco's Modified Eagle Medium (DMEM)/F12 (1:1) (Gibco, Cat. 11320-033), 10% fetal bovine serum (Gibco Cat. 10099141), 100 U/mL penicillin, 100 μg/mL streptomycin (Gibco, Cat. 151401-122), 5 ng/mL human epidermal growth factor (Invitrogen Cat. PHG0311L), 20 ng/mL dexamethasone (Sigma, Cat. D4902) and 250 ng/mL human recombinant insulin (Gibco, Cat. 12585-014)). And the cells were incubated at 37° C. with 5% CO2 and 85% humidity for 4 hours. The medium was then changed to pre-warmed PHH culture medium containing 4% polyethylene glycol (PEG) MW8000 (Sigma, Cat. P1458-50ML) and 1% DMSO (Sigma, Cat. D2650). 5.8×10^6 genomic equivalents of HBV were added into the medium.
At 24 hours post-infection, the cells were gently washed with PBS and refreshed with PHH culture medium supplemented with 1% DMSO, and 0.25 mg/mL Matrix gel (Corning, Cat. 356237) at 200 μL per well. All plates were immediately placed in at 37° C. CO2 incubator.
24 hours later, serial dilutions of compounds made with DMSO were further diluted with the same culture medium (PHH culture medium supplemented with 1% DMSO and 0.25 mg/mL Matrix gel as described above) before they were added to the cells to reach desired final compound concentrations and 1% DMSO concentration. The medium containing the compounds were refreshed every three days.
At 9 days post-compound treatment, extracellular HBsAg level were measured with Chemiluminescence Immuno Assay (CLIA) kit (Autobio, HBsAg Quantitative CLIA). Extracellular HBV DNA was extracted by MagNA Pure 96 system (Roche) and then determined by quantitative PCR with the following primers and probe: […]
HBsAg IC50 and HBV DNA IC50 values were derived from the dose-response curve using 4 parameter logistic curve fit method. The compounds of formula (I) have HBsAg IC50<20 μM, particularly <1 μM; and HBV DNA IC50<50 μM.

[2] = test system: HBeAg level in HepDES19 cells (surrogate marker for cccDNA); experiment: Engineered HepDES19 primary screen assay (HBeAg as surrogate marker for cccDNA); type: cell-based, HBV; details: Hepatitis B virus, HepDES19, 120 h, read-out: IC50 (HBeAg level, HepDES19 primary screen assay)
Description: The assay was employed to screen for novel cccDNA inhibitors. HepDES19 is a cccDNA-producing cell line. In this cell line, HBeAg in the cell culture supernatant as surrogate marker, as HBeAg production depends on cccDNA level and activity. HepDES19 is an engineered cell line which contains a 1.1 unit length HBV genome, and pgRNA transcription from the transgene is controlled by Tetracycline (Tet). In the absence of Tet, pgRNA transcription will be induced, but HBV e antigen (HBeAg) could not be produced from this pgRNA due to very short leader sequence before the HBeAg start codon and the start codon is disrupted. Only after cccDNA is formed, the missing leader sequence and start codon mutation would be restored from the 3′-terminal redundancy of pgRNA, and then HBeAg could be synthesized. Therefore, HBeAg could be used as a surrogate marker for cccDNA (Zhou, T. et al., Antiviral Res. (2006), 72(2), 116-124; Guo, H. et al., J. Virol. (2007), 81(22), 12472-12484).
HepDES19 cells were seeded at 2×10^6 cells per T150 flask and cultured with the culture medium (Dulbecco's Modified Eagle Medium: Nutrient Mixture F-12 [DMEM-F12, Gibco Cat. 11320-82], 10% Fetal Bovine Serum [FBS, Clontech Cat. 631101], 0.1 mM Non-Essential Amino Acids Solution [NEAA, Gibco Cat. 11140-050], 50 μg/mL Penicillin-Streptomycin [PS, Invitrogen Cat. 15140-163], 500 μg/mL Geneticin [G418, Invitrogen Cat. 10131-027]) containing 3 μg/mL Tet (Sigma, Cat. 87128) for 5 days. Cells were then seeded at 4×10^6 cells per T150 in the same culture medium as described above in the absence of Tet for 8 days. Cells were then harvested and frozen at density of 2×10^6 cells per mL. For compound testing, the frozen cells were thawed and seeded into 96-well plates at a density of 6×10^4 cells per well. At 24 hours after seeding, half log serial dilutions of compounds made with Dimethyl sulfoxide (DMSO, Sigma, Cat. D2650) were further diluted with the same culture medium as described above before they were added to the cells to reach desired final compound concentrations and 1% DMSO concentration. Plates were then incubated at 37° C. for another 5 days before measurement of HBeAg level and cell viability. Intracellular HBeAg level were measured with enzyme-linked immunosorbent assay (ELISA) kit (Shanghai Kehua Diagnostic Medical Products Co., Ltd). Cell viability was assessed using Cell Counting Kit-8 (Donjindo, Cat. CK04-20). IC50 values were derived from the dose-response curve using 4 parameter logistic curve fit method.
The compounds of the present invention were tested for their capacity to inhibit extracellular HBeAg level as described herein.

Row | Compound | IC50 [1] | IC50 [2]
1 | O=C1c2oc3c(Cl)cccc3c(=O)c2CCN1c1ccc(Cl)cc1C(F)(F)F [Example 27, 9-chloro-2-(4-chloro-2-(trifluoromethyl)phenyl)-3,4-dihydro-2H-chromeno[2,3-c]pyridine-1,5-dione] | 13 µM | 0.89 µM
2 | O=C1c2oc3c(Cl)cccc3c(=O)c2CCN1c1ccc(F)c(C(F)(F)F)c1 [Example 18, 9-chloro-2-(4-fluoro-3-(trifluoromethyl)phenyl)-3,4-dihydro-2H-chromeno[2,3-c]pyridine-1,5-dione] | 2.84 µM | 14 µM
3 | O=C1c2oc3c(Cl)cccc3c(=O)c2CCN1c1ccccc1OC(F)(F)F [Example 23, 9-chloro-2-(2-(trifluoromethoxy)phenyl)-3,4-dihydro-2H-chromeno[2,3-c]pyridine-1,5-dione] | 16.5 µM | 6.88 µM
4 | Cn1cc(N2CCc3c(oc4c(Cl)cccc4c3=O)C2=O)cn1 [Example 35, 9-chloro-2-(1-methyl-1H-pyrazol-4-yl)-3,4-dihydro-2H-chromeno[2,3-c]pyridine-1,5-dione] | 10.5 µM | 46.9 µM
5 | CC(C)(C)OC(=O)N1CCc2c(oc3c(Cl)cccc3c2=O)C1 [Example 1, tert-butyl 9-chloro-5-oxo-3,4-dihydro-1H-chromeno[2,3-c]pyridine-2(5H)-carboxylate] | 10.6 µM | 9.12 µM
6 | O=C1c2oc3c(Cl)cccc3c(=O)c2CN1c1ccc(Cl)cc1 [Example 51, 5-chloro-2-(4-chlorophenyl)-1H-chromeno[2,3-c]pyrrole-3,9-dione] | 5.8 µM | 5.46 µM
